According to publication PMC6480460, “Derivatives of the β-Crinane Amaryllidaceae Alkaloid Haemanthamine as Multi-Target Directed Ligands for Alzheimer’s Disease” (Molecules, 2019):

Columns and labels:
hAChE = hAChE (Homo sapiens, UniProt P22303); test: biochemical; assay type: biochemical; conditions: for IC50: mean ± SEM of three independent measurements, each in triplicate; for SI for hAChE: selectivity index, ratio hBuChE IC50/hAChE IC50
Description: (§1) The hAChE and hBuChE activities were determined using a modified method of Ellman with acetylthiocholine iodide (ATChI) and butyrylthiocholine iodide (BuTChI) as substrates, respectively.

hBuChE = hBuChE (Homo sapiens, UniProt P06276); test: biochemical; assay type: biochemical; conditions: mean ± SEM of three independent measurements, each in triplicate; read-out: hBuChE IC50
Description: as §1

[1] = system: Jurkat (acute T cell leukemia); test: WST-1 cytotoxicity assay, Jurkat; assay type: cell-based; conditions: Homo sapiens, c = 10 μM, 48 h, percent of proliferation of untreated control cells
Excerpt: (§2) Selected human tumor and non-tumor cell lines {Jurkat (acute T cell leukemia), MOLT-4 (acute lymphoblastic leukemia), A549 (lung carcinoma), HT-29 (colorectal adenocarcinoma), PANC-1 (pancreas epithelioid carcinoma), A2780 (ovarian carcinoma), HeLa (cervix adenocarcinoma), MCF-7 (breast adenocarcinoma), SAOS-2 (osteosarcoma) and MRC-5 (normal lung fibroblasts)} were purchased from either ATCC (Manassas, VA, USA) or Sigma-Aldrich (St. Louis, MO, USA) and cultured according to the provider’s culture method guidelines. […] Cells in the maximum range of either 10 passages for primary cell line (MRC-5), or in the maximum range of 20 passages for cancer cell lines (Jurkat, MOLT-4, A549, HT-29, PANC-1, A2780, HeLa, MCF-7 and SAOS-2) and in an exponential growth phase were used for this study.
(§3) The WST-1 (Roche, Mannheim, Germany) reagent was used to determine the cytostatic effect of the test compounds. WST-1 is designed for the spectrophotometric quantification of cell proliferation, growth, viability and chemosensitivity in cell populations using a 96-well-plate format (Sigma, St. Louis, MO, USA). The principle of WST-1 is based on photometric detection of the reduction of tetrazolium salt to a colored formazan product. The cells were seeded at a previously established optimal density (30,000 Jurkat, 25,000 MOLT-4, 500 A549, 1500 HT-29, 2000 PANC-1, 5000 A2780, 500 HeLa, 1500 MCF-7, 2000 SAOS-2 and 2000 MRC-5 cells/well) in 100 µL of culture medium, and adherent cells were allowed to reattach overnight. Thereafter, the cells were treated with 100 µL of either corresponding alkaloids or doxorubicin stock solutions to obtain the desired concentrations and incubated in 5% CO2 at 37 °C. WST-1 reagent diluted 4-fold with PBS (50 µL) was added 48 h after treatment. Absorbance was measured after 3 h incubation with WST-1 at 440 nm. The measurements were performed in a Tecan Infinite M200 spectrometer (Tecan Group, Männedorf, Switzerland). All experiments were performed at least three times with triplicate measurements at each drug concentration per experiment. The viability was quantified as described previously according to the following formula: (%) viability = (Asample − Ablank)/(Acontrol − Ablank) × 100, where A is the absorbance of the employed WST-1 formazan measured at 440 nm. The viability of the treated cells was normalized to the viability of cells treated with 0.1% DMSO (Sigma-Aldrich) as a vehicle control.

[2] = system: MOLT-4 (acute lymphoblastic leukemia); test: WST-1 cytotoxicity assay, MOLT-4; assay type: cell-based; conditions: Homo sapiens, c = 10 μM, 48 h, percent of proliferation of untreated control cells, read-out: Cell proliferation, MOLT-4
Excerpt: as §2, §3

A549 (lung carcinoma) = test: WST-1 cytotoxicity assay, A549; assay type: cell-based; conditions: Homo sapiens, c = 10 μM, 48 h, percent of proliferation of untreated control cells, read-out: Cell proliferation, A549
Excerpt: as §2, §3

[3] = system: HT-29 (colorectal adenocarcinoma); test: WST-1 cytotoxicity assay, HT-29; assay type: cell-based; conditions: Homo sapiens, c = 10 μM, 48 h, percent of proliferation of untreated control cells, read-out: Cell proliferation, HT-29
Excerpt: as §2, §3

[4] = system: PANC-1 (pancreas epithelioid carcinoma); test: WST-1 cytotoxicity assay, PANC-1; assay type: cell-based; conditions: Homo sapiens, c = 10 μM, 48 h, percent of proliferation of untreated control cells, read-out: Cell proliferation, PANC-1
Excerpt: as §2, §3

[5] = system: A2780 (ovarian carcinoma); test: WST-1 cytotoxicity assay, A2780; assay type: cell-based; conditions: Homo sapiens, c = 10 μM, 48 h, percent of proliferation of untreated control cells, read-out: Cell proliferation, A2780
Excerpt: as §2, §3

[6] = system: HeLa (cervix adenocarcinoma); test: WST-1 cytotoxicity assay, HeLa; assay type: cell-based; conditions: Homo sapiens, c = 10 μM, 48 h, percent of proliferation of untreated control cells, read-out: Cell proliferation, HeLa
Excerpt: as §2, §3

[7] = system: MCF-7 (breast adenocarcinoma); test: WST-1 cytotoxicity assay, MCF-7; assay type: cell-based; conditions: Homo sapiens, MCF7; c = 10 μM, 48 h, percent of proliferation of untreated control cells; read-out: Cell proliferation, MCF-7
Excerpt: as §2, §3

SAOS-2 (osteosarcoma) = test: WST-1 cytotoxicity assay, SAOS-2; assay type: cell-based; conditions: Homo sapiens, c = 10 μM, 48 h, percent of proliferation of untreated control cells, read-out: Cell proliferation, SAOS-2
Excerpt: as §2, §3

[8] = system: MRC-5 (normal lung fibroblasts); test: WST-1 cytotoxicity assay, MRC-5; assay type: cell-based; conditions: Homo sapiens, MRC5; c = 10 μM, 48 h, percent of proliferation of untreated control cells; read-out: Cell proliferation, MRC-5
Excerpt: as §2, §3

GSK-3β = GSK-3β (Homo sapiens, UniProt P49841); test: GSK-3β assay (Kinase-Glo Kit); assay type: biochemical; conditions: tested at 10 µM compound concentration; read-out: GSK-3β (% inhib.)
Description: The GSK-3β assay was performed by using Kinase-Glo Kit obtained from Promega (Promega Biotech Iberica, SL, Madrid, Spain) as described previously.

in vitro = conditions: for PAMPA-BBB prediction of penetration in the CNS: class from Pe
Description: The PAMPA assay was performed as previously described.

Sequence of hAChE (P22303 32-614): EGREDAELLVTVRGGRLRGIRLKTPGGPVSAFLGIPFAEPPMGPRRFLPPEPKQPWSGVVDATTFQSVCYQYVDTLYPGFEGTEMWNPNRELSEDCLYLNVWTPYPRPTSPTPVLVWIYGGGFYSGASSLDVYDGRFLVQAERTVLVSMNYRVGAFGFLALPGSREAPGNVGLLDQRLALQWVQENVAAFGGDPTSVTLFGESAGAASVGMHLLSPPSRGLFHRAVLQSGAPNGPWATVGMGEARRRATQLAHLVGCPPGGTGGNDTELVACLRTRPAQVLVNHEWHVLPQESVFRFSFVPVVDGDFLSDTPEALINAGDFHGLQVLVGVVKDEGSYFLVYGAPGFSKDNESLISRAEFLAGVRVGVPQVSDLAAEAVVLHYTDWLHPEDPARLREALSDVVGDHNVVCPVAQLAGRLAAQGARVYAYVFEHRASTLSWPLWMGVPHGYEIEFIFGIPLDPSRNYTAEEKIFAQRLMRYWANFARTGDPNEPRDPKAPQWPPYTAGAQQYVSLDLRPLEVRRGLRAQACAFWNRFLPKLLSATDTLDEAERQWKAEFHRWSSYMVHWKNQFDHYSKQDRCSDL
Sequence of hBuChE (P06276 29-602): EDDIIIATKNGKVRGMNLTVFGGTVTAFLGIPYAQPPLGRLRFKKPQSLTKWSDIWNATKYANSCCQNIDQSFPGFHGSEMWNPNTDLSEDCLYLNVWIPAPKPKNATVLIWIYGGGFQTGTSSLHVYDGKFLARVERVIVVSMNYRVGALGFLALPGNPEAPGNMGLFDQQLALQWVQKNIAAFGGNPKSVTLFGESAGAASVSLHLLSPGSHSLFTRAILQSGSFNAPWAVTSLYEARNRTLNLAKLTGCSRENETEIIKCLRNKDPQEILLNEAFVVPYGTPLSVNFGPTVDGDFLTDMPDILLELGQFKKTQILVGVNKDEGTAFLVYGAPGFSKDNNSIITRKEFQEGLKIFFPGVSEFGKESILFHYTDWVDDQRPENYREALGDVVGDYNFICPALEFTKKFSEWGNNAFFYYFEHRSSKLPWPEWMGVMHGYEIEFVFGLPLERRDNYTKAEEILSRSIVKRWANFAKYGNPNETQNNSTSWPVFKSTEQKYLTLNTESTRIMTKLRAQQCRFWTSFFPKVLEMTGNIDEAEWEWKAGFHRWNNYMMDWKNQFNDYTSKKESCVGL
Sequence of GSK-3β (P49841 whole entry): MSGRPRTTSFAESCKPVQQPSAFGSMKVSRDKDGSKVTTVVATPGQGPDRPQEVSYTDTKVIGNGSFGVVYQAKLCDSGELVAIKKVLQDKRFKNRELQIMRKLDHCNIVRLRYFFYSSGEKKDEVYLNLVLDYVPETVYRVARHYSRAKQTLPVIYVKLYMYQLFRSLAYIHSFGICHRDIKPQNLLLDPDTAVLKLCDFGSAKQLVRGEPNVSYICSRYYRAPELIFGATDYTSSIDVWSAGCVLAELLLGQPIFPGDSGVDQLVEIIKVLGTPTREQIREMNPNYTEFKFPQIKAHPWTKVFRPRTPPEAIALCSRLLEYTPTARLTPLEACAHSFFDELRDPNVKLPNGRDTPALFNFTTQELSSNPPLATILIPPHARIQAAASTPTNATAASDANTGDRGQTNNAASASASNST

| SMILES | IC50 (hAChE) [µM] | SI for hAChE (hAChE) | IC50 (hBuChE) [µM] | activity at 10 µM [1] [%] | viability at 10 µM [2] [%] | activity at 10 µM (A549 (lung carcinoma)) [%] | activity at 10 µM [3] [%] | activity at 10 µM [4] [%] | activity at 10 µM [5] [%] | activity at 10 µM [6] [%] | activity at 10 µM [7] [%] | activity at 10 µM (SAOS-2 (osteosarcoma)) [%] | activity at 10 µM [8] [%] | inhibition at 10 µM (GSK-3β) [%] | PAMPA-BBB prediction of penetration in the CNS (in vitro) | PAMPA-BBB prediction of penetration in the CNS (in vitro; listed as 18g) | Papp (in vitro; pig, PAMPA, PAMPA-BBB Permeability (Pe)) [nm/s] |
| --- | --- | --- | --- | --- | --- | --- | --- | --- | --- | --- | --- | --- | --- | --- | --- | --- | --- |
| CCC(=O)OC1CN2Cc3cc4c(cc3C13C=CC(OC)CC23)OCO4 (stereo not drawn) [Compound 1b, 11-O-Propionylhaemanthamine] | > 500 | < 0.9 | 437 ± 38 | 104 ± 3 | 97 ± 8 | 84 ± 3 | 79 ± 15 | 70 ± 13 | 104 ± 3 | 69 ± 11 | 85 ± 7 | 96 ± 16 | 102 ± 13 |  |  |  |  |
| COC1C=CC23c4cc5c(cc4CN(CC2OC(=O)c2cccc(Br)c2)C3C1)OCO5 (stereo not drawn) [Compound 1i, 11-O-(3-Bromobenzoyl)haemanthamine] | 112 ± 21 | 1.1 | 129 ± 25 | 133 ± 10 | 115 ± 15 | 122 ± 5 | 120 ± 4 | 108 ± 2 | 162 ± 9 | 93 ± 5 | 105 ± 4 | 97 ± 10 | 105 ± 3 |  |  |  |  |
| COC1C=CC23c4cc5c(cc4CN(CC2OC(C)=O)C3C1)OCO5 (stereo not drawn) [Compound 1a, 11-O-Acetylhaemanthamine] | > 500 |  | > 500 | 100 ± 13 | 106 ± 9 | 95 ± 9 | 97 ± 10 | 114 ± 4 | 107 ± 17 | 83 ± 6 | 97 ± 19 | 88 ± 6 | 113 ± 12 |  |  |  |  |
| COC1C=CC23c4cc5c(cc4CN(CC2OC(=O)c2cccc(Cl)c2)C3C1)OCO5 (stereo not drawn) [Compound 1h, 11-O-(3-Chlorobenzoyl)haemanthamine] | 85.1 ± 6.4 | 0.9 | 80.2 ± 10.2 |  |  |  |  |  |  |  |  |  |  |  |  |  |  |
| COC1C=CC23c4cc5c(cc4CN(CC2OC(=O)C(C)C)C3C1)OCO5 (stereo not drawn) [Compound 1c, 11-O-Isobutanoylhaemanthamine] | > 500 | < 0.4 | 203 ± 8 | 110 ± 3 | 99 ± 8 | 84 ± 3 | 82 ± 17 | 85 ± 13 | 123 ± 9 | 74 ± 8 | 103 ± 7 | 85 ± 15 | 95 ± 7 |  |  |  |  |
| CCCC(=O)OC1CN2Cc3cc4c(cc3C13C=CC(OC)CC23)OCO4 (stereo not drawn) [Compound 1f, 11-O-Butanoylhaemanthamine] | > 500 | < 0.3 | 140 ± 21 | 90 ± 12 | 101 ± 18 | 106 ± 12 | 101 ± 3 | 99 ± 6 | 104 ± 8 | 88 ± 3 | 96 ± 13 | 104 ± 7 | 87 ± 14 |  |  |  |  |
| CCCCC(=O)OC1CN2Cc3cc4c(cc3C13C=CC(OC)CC23)OCO4 (stereo not drawn) [Compound 1d, 11-O-Pentanoylhaemanthamine] | > 500 |  | > 500 | 92 ± 1 | 96 ± 1 | 99 ± 7 | 94 ± 4 | 88 ± 3 | 99 ± 2 | 93 ± 6 | 93 ± 5 | 88 ± 6 | 89 ± 3 |  |  |  |  |
| COc1cccc2c1C(=O)c1c(O)c3c(c(O)c1C2=O)C[C@@](O)(C(=O)CO)C[C@@H]3O[C@H]1C[C@H](N)[C@H](O)[C@H](C)O1 [DOX, Doxorubicin, reference compound] |  |  |  | 0 | 0 | 66 ± 16 | 77 ± 12 | 59 ± 9 | 5 ± 1 | 7 ± 10 | 41 ± 7 | 73 ± 8 | 40 ± 4 |  |  |  |  |
| COC1C=CC23c4cc5c(cc4CN(CC2OC(=O)c2ccccc2)C3C1)OCO5 (stereo not drawn) [Compound 1g, 11-O-Benzoylhaemanthamine] | 294 ± 25 | 0.02 | 5.8 ± 0.3 | 83 ± 11 | 110 ± 19 | 98 ± 2 | 110 ± 17 | 100 ± 10 | 120 ± 10 | 98 ± 2 | 108 ± 10 | 104 ± 9 | 101 ± 5 | 11 ± 2 | CNS+ (CNS(+): high BBB permeation predicted with Pe (10^−6 cm.s^−1) > 4.0) | CNS + |  |
| COc1cccc(C(=O)OC2CN3Cc4cc5c(cc4C24C=CC(OC)CC34)OCO5)c1 (stereo not drawn) [Compound 1k, 11-O-(3-Methoxybenzoyl)haemanthamine] | 180 ± 17 | 0.4 | 75.5 ± 12.5 | 83 ± 1 | 94 ± 18 | 102 ± 5 | 93 ± 3 | 88 ± 5 | 108 ± 7 | 84 ± 12 | 100 ± 2 | 89 ± 15 | 92 ± 1 |  |  |  |  |
| CN(C)CCCN1c2ccccc2Sc2ccccc21 [Promazine, reference compound] |  |  |  |  |  |  |  |  |  |  |  |  |  |  |  |  | 86 |
| CCCCCC(=O)OC1CN2Cc3cc4c(cc3C13C=CC(OC)CC23)OCO4 (stereo not drawn) [Compound 1e, 11-O-Hexanoylhaemanthamine] | > 500 | < 0.5 | 273 ± 18 | 100 ± 7 | 97 ± 3 | 105 ± 9 | 100 ± 3 | 96 ± 4 | 106 ± 5 | 98 ± 3 | 95 ± 4 | 96 ± 8 | 96 ± 4 |  |  |  |  |
